According to US20260250289A1, “BICYCLIC HETEROCYCLES AND THEIR USE AS WRN INHIBITORS” (Novartis AG, priority 2022, published 2026):

Columns and labels:
[1] = test system: DLD1-WRN-KO cells; test: Proliferation assay DLD1-WRN-KO (CellTiterGlo, off-target effects); format: cell-based; conditions: 96 hours, geometric mean of at least 2
Outline: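 DLD1 cells with CRISPR knockout of WRN were exposed overnight-seeded to eight 3-fold compound dilutions (0.1% DMSO) for 96 h at 37 °C. Viability was read as ATP by CellTiterGlo luminescence against a day-0 plate, giving GI50 and residual viability at top concentration.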

[2] = test system: SW48 cells; test: Proliferation assay SW48 (CellTiterGlo); format: cell-based; conditions: Homo sapiens, SW48, 96 h, SW48 colon carcinoma cells, 96 hours, CellTiterGlo; geometric mean of at least 2; read-out: Proliferation Assay SW48 GI50
Outline: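 Read-out is CellTiterGlo luminescence after 96 hours of compound exposure, with % growth calculated against day-0 and vehicle-treated ATP levels. SW48 seeded at 2,000 cells/well, dosed next day with eight 3-fold serial dilutions, 0.1% DMSO. GI50 reported as geometric mean, at least 2 replicates.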

[3] = biological target: T1, WRN helicase (aa N517-P1238) (Homo sapiens, UniProt Q14191); test: WRN ATPase assay (DNA dependent ATP hydrolysis, ADP-Glo); format: biochemical; conditions: 3 hours pre-incubation, 300 micromolar ATP, FLAP26 DNA; geometric mean of at least 2
T1 construct: The core helicase motif of the WRN protein (aa N517-P1238) was produced for this assay; His (N); ZZ (N); 3C protease cleavage site (N); made in house; host or cells: Sf21 insect cells (baculovirus; virus and BIICs made in SF9)
T1 sequence (Q14191 517-1238): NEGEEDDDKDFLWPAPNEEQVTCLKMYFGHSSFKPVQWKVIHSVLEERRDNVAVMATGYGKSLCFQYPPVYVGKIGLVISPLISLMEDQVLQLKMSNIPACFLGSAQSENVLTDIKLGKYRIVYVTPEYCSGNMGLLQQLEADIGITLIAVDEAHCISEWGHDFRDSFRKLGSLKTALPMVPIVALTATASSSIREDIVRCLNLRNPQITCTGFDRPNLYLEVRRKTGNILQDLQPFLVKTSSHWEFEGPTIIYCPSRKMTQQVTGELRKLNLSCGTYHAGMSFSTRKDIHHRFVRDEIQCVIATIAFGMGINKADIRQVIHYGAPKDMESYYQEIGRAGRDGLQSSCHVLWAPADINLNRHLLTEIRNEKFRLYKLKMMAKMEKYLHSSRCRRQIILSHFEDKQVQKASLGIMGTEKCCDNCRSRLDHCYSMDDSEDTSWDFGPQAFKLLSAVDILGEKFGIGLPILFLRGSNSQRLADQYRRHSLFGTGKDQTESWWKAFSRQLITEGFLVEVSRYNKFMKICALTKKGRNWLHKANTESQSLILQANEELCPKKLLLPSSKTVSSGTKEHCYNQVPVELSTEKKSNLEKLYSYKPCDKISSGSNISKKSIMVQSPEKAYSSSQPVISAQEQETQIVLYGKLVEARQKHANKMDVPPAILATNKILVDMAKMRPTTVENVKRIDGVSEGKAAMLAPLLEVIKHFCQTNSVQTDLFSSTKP
Outline: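 DNA-dependent ATP hydrolysis detected as ADP by ADP-Glo luminescence, using 300 μM ATP, 0.2 nM FLAP26 substrate and 10 nM WRN aa N517-P1238 (Tris pH 7.5 buffer, 2 mM MgCl2, 50 mM NaCl). IC50s fitted from normalized duplicate half-log dilutions; reported as geometric means of at least 2 replicates.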

GI50 [1] [nM]	GI50 [2] [nM]	IC50 [3] [nM]	SMILES
> 10000	6000	200	CCc1ccc(NC(=O)Cn2c(C)c(N3CCN(C(C)=O)CC3)c(=O)n3nc(C4=CCCCO4)nc23)cc1Cl [Example 31, 2-(6-(4-acetylpiperazin-1-yl)-2-(3,4-dihydro-2H-pyran-6-yl)-5-methyl-7-oxo-[1,2,4]triazolo[1,5-a]pyrimidin-4(7H)-yl)-N-(3-chloro-4-ethylphenyl)acetamide]
> 10000	3000	800	CC(=O)N1CCN(c2c(C)n(CC(=O)Nc3ccc(C(F)(F)F)cc3Br)c3nc(C4=CCOCC4)nn3c2=O)CC1 [Example 32, 2-(6-(4-acetylpiperazin-1-yl)-2-(3,6-dihydro-2H-pyran-4-yl)-5-methyl-7-oxo-[1,2,4]triazolo[1,5-a]pyrimidin-4(7H)-yl)-N-(2-bromo-4-(trifluoromethyl)phenyl)acetamide]
> 10000	8000	1000	CCc1c(N2CCN(C(=O)CN)CC2)c(=O)n2nc(C3=CCC(OC)CC3)nc2n1CC(=O)Nc1ccc(C(F)(F)F)cc1 (stereo not drawn) [Example 33, 2-(5-ethyl-6-(4-glycylpiperazin-1-yl)-2-(4-methoxycyclohex-1-en-1-yl)-7-oxo-[1,2,4]triazolo[1,5-a]pyrimidin-4(7H)-yl)-N-(4-(trifluoromethyl)phenyl)acetamide]
> 10000	7000	5000	CCc1c(N2CCN(C(=O)c3ncnc(C)c3OC)CC2)c(=O)n2nc(C3=CCOCC3)nc2n1CC(=O)Nc1ccc(C(F)(F)F)cc1C [Example 34, 2-(2-(3,6-dihydro-2H-pyran-4-yl)-5-ethyl-6-(4-(5-methoxy-6-methylpyrimidine-4-carbonyl)piperazin-1-yl)-7-oxo-[1,2,4]triazolo[1,5-a]pyrimidin-4(7H)-yl)-N-(2-methyl-4-(trifluoromethyl)phenyl)acetamide]
> 10000	300	40	Cc1c(N2CCN(C(=O)c3c(O)ccc4ccnn34)CC2)c(=O)n2nc(C3=CCOCC3)nc2n1CC(=O)Nc1ccc(C(F)(F)F)cc1 [Example 35, 2-(2-(3,6-dihydro-2H-pyran-4-yl)-6-(4-(6-hydroxypyrazolo[1,5-a]pyridine-7-carbonyl)piperazin-1-yl)-5-methyl-7-oxo-[1,2,4]triazolo[1,5-a]pyrimidin-4(7H)-yl)-N-(4-(trifluoromethyl)phenyl)acetamide]
> 10000	> 10000	100	Cc1c(N2CCN(C(=O)c3ccncc3O)CC2)c(=O)n2nc(C3=CCOCC3)nc2n1CC(=O)Nc1ccc(C(F)(F)F)cc1 [Example 36, 2-(2-(3,6-dihydro-2H-pyran-4-yl)-6-(4-(3-hydroxyisonicotinoyl)piperazin-1-yl)-5-methyl-7-oxo-[1,2,4]triazolo[1,5-a]pyrimidin-4(7H)-yl)-N-(4-(trifluoromethyl)phenyl)acetamide]
> 10000	90	90	CCc1c(N2CCN(C(=O)c3ncc4c(c3O)OCC4)CC2)c(=O)n2nc(C3=CCOCC3)nc2n1CC(=O)Nc1ccc(C(F)(F)F)cc1C [Example 37, 2-(2-(3,6-dihydro-2H-pyran-4-yl)-5-ethyl-6-(4-(7-hydroxy-2,3-dihydrofuro[3,2-c]pyridine-6-carbonyl)piperazin-1-yl)-7-oxo-[1,2,4]triazolo[1,5-a]pyrimidin-4(7H)-yl)-N-(2-methyl-4-(trifluoromethyl)phenyl)acetamide]
> 10000	100	30	CCc1c(N2CCN(C(=O)c3c(F)ccc(F)c3O)CC2)c(=O)n2nc(C3=CCCCO3)nc2n1CC(=O)Nc1ccc(C(F)(F)F)cc1 [Example 38, 2-(6-(4-(3,6-difluoro-2-hydroxybenzoyl)piperazin-1-yl)-2-(3,4-dihydro-2H-pyran-6-yl)-5-ethyl-7-oxo-[1,2,4]triazolo[1,5-a]pyrimidin-4(7H)-yl)-N-(4-(trifluoromethyl)phenyl)acetamide]
4000	300	30	CCc1c(N2CCN(C(=O)c3ccc(F)c(F)c3O)CC2)c(=O)n2nc(C3=CCCCO3)nc2n1CC(=O)Nc1ccc(C(F)(F)F)cc1 [Example 39, 2-(6-(4-(3,4-difluoro-2-hydroxybenzoyl)piperazin-1-yl)-2-(3,4-dihydro-2H-pyran-6-yl)-5-ethyl-7-oxo-[1,2,4]triazolo[1,5-a]pyrimidin-4(7H)-yl)-N-(4-(trifluoromethyl)phenyl)acetamide]
> 10000	600	40	CCc1c(N2CCN(C(=O)c3c(O)ccc4ccncc34)CC2)c(=O)n2nc(C3=CCOCC3)nc2n1CC(=O)Nc1ccc(C(F)(F)F)cc1C [Example 40, 2-(2-(3,6-dihydro-2H-pyran-4-yl)-5-ethyl-6-(4-(7-hydroxyisoquinoline-8-carbonyl)piperazin-1-yl)-7-oxo-[1,2,4]triazolo[1,5-a]pyrimidin-4(7H)-yl)-N-(2-methyl-4-(trifluoromethyl)phenyl)acetamide]
> 10000	500	70	CCc1c(N2CCN(C(=O)c3ccnc(F)c3O)CC2)c(=O)n2nc(C3=CCOCC3)nc2n1CC(=O)Nc1ccc(C(F)(F)F)cc1Cl [Example 42, N-(2-chloro-4-(trifluoromethyl)phenyl)-2-(2-(3,6-dihydro-2H-pyran-4-yl)-5-ethyl-6-(4-(2-fluoro-3-hydroxyisonicotinoyl)piperazin-1-yl)-7-oxo-[1,2,4]triazolo[1,5-a]pyrimidin-4(7H)-yl)acetamide]
> 10000	1000	80	CCc1c(N2CCN(C(=O)c3ccn4ccnc4c3O)CC2)c(=O)n2nc(C3=CCOCC3)nc2n1CC(=O)Nc1ccc(C(F)(F)F)cc1C [Example 43, 2-(2-(3,6-dihydro-2H-pyran-4-yl)-5-ethyl-6-(4-(8-hydroxyimidazo[1,2-a]pyridine-7-carbonyl)piperazin-1-yl)-7-oxo-[1,2,4]triazolo[1,5-a]pyrimidin-4(7H)-yl)-N-(2-methyl-4-(trifluoromethyl)phenyl)acetamide]
> 10000	900	80	CCc1c(N2CCN(C(=O)c3c(O)ccc4nccn34)CC2)c(=O)n2nc(C3=CCOCC3)nc2n1CC(=O)Nc1ccc(C(F)(F)F)cc1C [Example 44, 2-(2-(3,6-dihydro-2H-pyran-4-yl)-5-ethyl-6-(4-(6-hydroxyimidazo[1,2-a]pyridine-5-carbonyl)piperazin-1-yl)-7-oxo-[1,2,4]triazolo[1,5-a]pyrimidin-4(7H)-yl)-N-(2-methyl-4-(trifluoromethyl)phenyl)acetamide]
> 10000	300	90	CCc1c(N2CCN(C(=O)c3ccc(Cl)c(F)c3O)CC2)c(=O)n2nc(C3=CCOCC3)nc2n1CC(=O)Nc1ccc(C(F)(F)F)cc1C [Example 45, 2-(6-(4-(4-chloro-3-fluoro-2-hydroxybenzoyl)piperazin-1-yl)-2-(3,6-dihydro-2H-pyran-4-yl)-5-ethyl-7-oxo-[1,2,4]triazolo[1,5-a]pyrimidin-4(7H)-yl)-N-(2-methyl-4-(trifluoromethyl)phenyl)acetamide]
> 10000	200	90	CCc1c(N2CCN(C(=O)c3c(O)ccc4nccn34)CC2)c(=O)n2nc(C3=CCOCC3)nc2n1CC(=O)Nc1ccc(C(F)(F)F)cc1Cl [Example 46, N-(2-chloro-4-(trifluoromethyl)phenyl)-2-(2-(3,6-dihydro-2H-pyran-4-yl)-5-ethyl-6-(4-(6-hydroxyimidazo[1,2-a]pyridine-5-carbonyl)piperazin-1-yl)-7-oxo-[1,2,4]triazolo[1,5-a]pyrimidin-4(7H)-yl)acetamide]
> 10000	900	90	CCc1c(N2CCN(C(=O)c3ccnc(C)c3O)CC2)c(=O)n2nc(C3=CCOCC3)nc2n1CC(=O)Nc1ccc(C(F)(F)F)cc1C [Example 47, 2-(2-(3,6-dihydro-2H-pyran-4-yl)-5-ethyl-6-(4-(3-hydroxy-2-methylisonicotinoyl)piperazin-1-yl)-7-oxo-[1,2,4]triazolo[1,5-a]pyrimidin-4(7H)-yl)-N-(2-methyl-4-(trifluoromethyl)phenyl)acetamide]
> 10000	> 10000	100	Cc1c(N2CCN(C(=O)c3cccnc3O)CC2)c(=O)n2nc(C3=CCOCC3)nc2n1CC(=O)Nc1ccc(C(F)(F)F)cc1 [Example 48, 2-(2-(3,6-dihydro-2H-pyran-4-yl)-6-(4-(2-hydroxynicotinoyl)piperazin-1-yl)-5-methyl-7-oxo-[1,2,4]triazolo[1,5-a]pyrimidin-4(7H)-yl)-N-(4-(trifluoromethyl)phenyl)acetamide]
> 10000	500	200	CCc1c(N2CCN(C(=O)c3ccnc(C)c3O)CC2)c(=O)n2nc(C3=CCOCC3)nc2n1CC(=O)Nc1ccc(C(F)(F)F)cc1Cl [Example 49, N-(2-chloro-4-(trifluoromethyl)phenyl)-2-(2-(3,6-dihydro-2H-pyran-4-yl)-5-ethyl-6-(4-(3-hydroxy-2-methylisonicotinoyl)piperazin-1-yl)-7-oxo-[1,2,4]triazolo[1,5-a]pyrimidin-4(7H)-yl)acetamide]
